Values of other authors as cited in patent US12253499B2, “Thin-layer chromatography system and method for assessing analyte concentrations in samples” (UCL BUSINESS LTD, priority 2017, dated 2025).
Where two headings read alike, the source gives them in different places.

Tests used:
[1] = inter-individual variability
[2] = for Therapeutic window / Therapeutic window (μg/mL): Leading candidate drugs for TDM
topoisomerase I = target: T1, topoisomerase I (Homo sapiens, UniProt P11387); conditions: relative to Irinotecan
T1 sequence (P11387 1-765): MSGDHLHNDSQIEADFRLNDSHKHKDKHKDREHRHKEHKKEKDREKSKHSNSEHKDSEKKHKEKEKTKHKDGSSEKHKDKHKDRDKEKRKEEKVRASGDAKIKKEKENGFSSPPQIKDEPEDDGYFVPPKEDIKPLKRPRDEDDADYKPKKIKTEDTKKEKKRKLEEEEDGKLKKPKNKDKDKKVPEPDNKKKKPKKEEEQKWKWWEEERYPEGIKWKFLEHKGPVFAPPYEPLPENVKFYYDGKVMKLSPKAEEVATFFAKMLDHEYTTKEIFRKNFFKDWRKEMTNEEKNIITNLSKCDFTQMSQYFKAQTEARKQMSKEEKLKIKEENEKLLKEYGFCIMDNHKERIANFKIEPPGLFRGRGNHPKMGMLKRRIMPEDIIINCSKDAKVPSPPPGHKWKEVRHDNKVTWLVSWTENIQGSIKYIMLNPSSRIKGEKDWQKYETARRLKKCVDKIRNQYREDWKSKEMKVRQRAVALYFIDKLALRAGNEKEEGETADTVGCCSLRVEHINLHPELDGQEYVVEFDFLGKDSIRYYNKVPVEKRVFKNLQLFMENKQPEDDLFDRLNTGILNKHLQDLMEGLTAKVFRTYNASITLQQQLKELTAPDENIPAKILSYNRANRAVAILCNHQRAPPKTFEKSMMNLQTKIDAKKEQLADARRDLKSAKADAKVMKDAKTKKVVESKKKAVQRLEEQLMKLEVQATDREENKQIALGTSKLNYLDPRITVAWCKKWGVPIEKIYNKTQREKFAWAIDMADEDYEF

[3] = relative to Irinotecan
[4] = Table D, In-depth list of candidate drugs
[5] = Table D, In-depth list of candidate drugs, given as daily dose

## O=c1[nH]cc(F)c(=O)[nH]1 [5-fluoruoracil, 5-fluorouracil]
[1]
  Plasma drug concentrations vary: ≤ 100 fold
[2]; [4]
  Window: 2000 to 3000 µg/mL
[2]; Table D
  Therapeutic window: 2000 to 3000 µg/mL

## NCC[C@H](O)C(=O)N[C@@H]1C[C@H](N)[C@@H](O[C@H]2O[C@H](CN)[C@@H](O)[C@H](O)[C@H]2O)[C@H](O)[C@H]1O[C@H]1O[C@H](CO)[C@@H](O)[C@H](N)[C@H]1O [Amikacin]
[2]; [4]
  Window: 5 to 15 µg/mL

## CCCCc1oc2ccccc2c1C(=O)c1cc(I)c(OCCN(CC)CC)c(I)c1 [Amiodarone]
[2]; [4]
  Window: 0.5 to 2 µg/mL
[2]; Table D
  Therapeutic window (μg/mL): 0.5-2^ μg/mL

## CS(=O)(=O)OCCCCOS(C)(=O)=O [Busulfan]
[2]; [4]
  Window: 0.9 to 1 µg/mL

## NC(=O)N1c2ccccc2C=Cc2ccccc21 [Carbamazepine]
[2]; [4]
  Window: 5 to 10 µg/mL

## O=C(O)c1cn(C2CC2)c2cc(N3CCNCC3)c(F)cc2c1=O [Ciprofloxacin]
[2]; [4]
  Window: 0.1 to 8.3 µg/mL
[2]; Table D
  Therapeutic window: 0.1 to 8.3 µg/mL

## CN1C(=O)CC(=O)N(c2ccccc2)c2cc(Cl)ccc21 [Clobazam]
[2]; [4]
  Window: Varies, 0.2-5 ug/mL

## O=C1CN=C(c2ccccc2Cl)c2cc([N+](=O)[O-])ccc2N1 [Clonazepam]
[2]; [4]
  Window: 20 to 80 µg/mL

## CC(C)N(CCC(C(N)=O)(c1ccccc1)c1ccccn1)C(C)C (stereo not drawn) [Disopyramide]
[2]; [4]
  Window: 2 to 4 µg/mL

## COc1cccc2c1C(=O)c1c(O)c3c(c(O)c1C2=O)C[C@@](O)(C(=O)CO)C[C@@H]3O[C@H]1C[C@H](N)[C@H](O)[C@H](C)O1 [Doxorubicin]
[2]; Table D
  Therapeutic window: 10 to 58 µg/mL

## CCC1(C)CC(=O)NC1=O (stereo not drawn) [Ethosuximide]
[2]; [4]
  Window: 40 to 100 µg/mL

## COc1cc([C@@H]2c3cc4c(cc3[C@@H](O[C@@H]3O[C@@H]5CO[C@@H](C)O[C@H]5[C@H](O)[C@H]3O)[C@H]3COC(=O)[C@H]23)OCO4)cc(OC)c1O [Etopisode]
[2]; Table D
  Therapeutic window: 1 to 10 µg/mL

## NC(=O)OCC(COC(N)=O)c1ccccc1 [Felbamate]
[2]; [4]
  Window: 50 to 110 µg/mL

## NCC1(CC(=O)O)CCCCC1 [Gabapentin]
[2]; [4]
  Window: 2 to 20 µg/mL

## CCC(C)n1ncn(-c2ccc(N3CCN(c4ccc(OCC5COC(Cn6cncn6)(c6ccc(Cl)cc6Cl)O5)cc4)CC3)cc2)c1=O (stereo not drawn) [Itraconazole]
[2]; [4]
  Window: 0.5 to 17 µg/mL
[2]; Table D
  Therapeutic window: 0.5 to 17 µg/mL

## Nc1nnc(-c2cccc(Cl)c2Cl)c(N)n1 [Lamotrigine]
[2]; [4]
  Window: 2.5 to 15 µg/mL

## CC[C@@H](C(N)=O)N1CCCC1=O [Levetiracetam]
[2]; [4]
  Window: 10 to 40 µg/mL
[2]; Table D, In-depth list of candidate drugs, listed as Leveltiracetam
  Window: 20 to 40 µg/mL

## CCN(CC)CC(=O)Nc1c(C)cccc1C [Lidocaine]
[2]; [4]
  Window: 1.5 to 5 µg/mL

## CC(=O)NC[C@H]1CN(c2ccc(N3CCOCC3)c(F)c2)C(=O)O1 [Linezolid]
[2]; [4]
  Window: 1.75 to 7.53 µg/mL
[2]; Table D
  Therapeutic window: 1.8 to 7.5 µg/mL

## [Li] [Lithium]
[2]; [4]
  Window: 0.6-1.2 mEq/L

## Cc1cccc(C)c1OCC(C)N (stereo not drawn) [Mexiletine]
[2]; [4]
  Window: 0.5 to 2.5 µg/mL
[2]; Table D
  Therapeutic window: 0.5 to 2.5 µg/mL

## COc1c(C)c2c(c(O)c1C/C=C(\C)CCC(=O)O)C(=O)OC2 [Mycophenolic Acid]
[2]; [4]
  Window: 1 to 4 µg/mL
[2]; Table D
  Therapeutic window: 1 to 4 µg/mL

## CCN(CC)CCNC(=O)c1ccc(NC(C)=O)cc1 [NAPA]
[2]; [4]
  Window: 4 to 8 µg/mL
[2]; Table D
  Therapeutic window: 4 to 8 µg/mL

## O=C1CN=C(c2ccccc2)c2cc([N+](=O)[O-])ccc2N1 [Nitrazepam]
[2]; [4]
  Window: 0.03 to 0.1 µg/mL

## C1CCC(C(CC2CCCCN2)C2CCCCC2)CC1 (stereo not drawn) [Perhexeline]
[2]; [4]
  Window: 0.3 to 4 µg/mL

## O=C1NC(=O)C(c2ccccc2)(c2ccccc2)N1 [Phenytoin]
[2]; [4]
  Window: 10 to 20 µg/mL

## CC[C@@H]([C@H](C)O)n1ncn(-c2ccc(N3CCN(c4ccc(OC[C@@H]5CO[C@@](Cn6cncn6)(c6ccc(F)cc6F)C5)cc4)CC3)cc2)c1=O [Posaconazole]
[2]; [4]
  Window: ~0.7 µg/mL
[2]; Table D
  Therapeutic window (μg/mL): Maintain at 0.7 μg/mL

## CCC1(c2ccccc2)C(=O)NCNC1=O [Primidone]
[2]; [4]
  Window: 5 to 12 µg/mL

## C=C[C@H]1C[N@@]2CC[C@H]1C[C@@H]2[C@@H](O)c1ccnc2ccc(OC)cc12 [Quinidine]
[2]; [4]
  Window: 2 to 5 µg/mL
[2]; Table D
  Therapeutic window: 2 to 5 µg/mL

## CCc1c2c(nc3ccc(O)cc13)-c1cc3c(c(=O)n1C2)COC(=O)[C@]3(O)CC [SN-38, 7-ethyl-10-hydroxycampto-thecin]
Topoisomerase I
  more potent at inhibiting topoisomerase I than the parent Irinotecan: up to 1,000
[3]
  concentration of SN-38 lower than that of Irinotecan: over 30 times

## O=C(O)c1ccccc1O [Salicylate]
[2]; [4]
  Window: 15 to 30 µg/mL
[2]; Table D
  Therapeutic window: 15 to 30 µg/mL

## CO[C@H]1C[C@@H]2CC[C@@H](C)[C@@](O)(O2)C(=O)C(=O)N2CCCC[C@H]2C(=O)O[C@H]([C@H](C)C[C@@H]2CC[C@@H](O)[C@H](OC)C2)CC(=O)[C@H](C)/C=C(\C)[C@@H](O)[C@@H](OC)C(=O)[C@H](C)C[C@H](C)/C=C/C=C/C=C/1C [Sirolimus]
[2]; [4]
  Window: 0.005 to 0.01 µg/mL

## C=CC[C@@H]1/C=C(\C)C[C@H](C)C[C@H](OC)[C@H]2O[C@@](O)(C(=O)C(=O)N3CCCC[C@H]3C(=O)O[C@H](/C(C)=C/[C@@H]3CC[C@@H](O)[C@H](OC)C3)[C@H](C)[C@@H](O)CC1=O)[C@H](C)C[C@@H]2OC [Tacrolimus]
[2]; [4]
  Window: 5 to 20 µg/mL

## Cn1c(=O)c2[nH]cnc2n(C)c1=O [Theophylline]
[2]; [4]
  Window: 5 to 15 µg/mL

## Cc1ccsc1C(=CCCN1CCC[C@@H](C(=O)O)C1)c1sccc1C [Tiagibine]
[2]; [4]
  Window: 0.02 to 0.2 µg/mL

## NC[C@H]1O[C@H](O[C@H]2[C@H](O)[C@@H](O[C@H]3O[C@H](CO)[C@@H](O)[C@H](N)[C@H]3O)[C@H](N)C[C@@H]2N)[C@H](N)C[C@@H]1O [Tobramicin]
[2]; [4]
  Window: 2 to 10 µg/mL

## CC1(C)O[C@@H]2[C@@H](CO[C@@]3(COS(N)(=O)=O)OC(C)(C)O[C@@H]23)O1 [Topiramate]
[2]; [4]
  Window: 2 to 10 µg/mL

## CCCC(CCC)C(=O)O [Valproic acid]
[2]; [4]
  Window: 50 to 125 µg/mL

## CN[C@H](CC(C)C)C(=O)N[C@H]1C(=O)N[C@@H](CC(N)=O)C(=O)N[C@H]2C(=O)N[C@H]3C(=O)N[C@H](C(=O)N[C@H](C(=O)O)c4cc(O)cc(O)c4-c4cc3ccc4O)[C@H](O)c3ccc(c(Cl)c3)Oc3cc2cc(c3O[C@@H]2O[C@H](CO)[C@@H](O)[C@H](O)[C@H]2O[C@H]2C[C@](C)(N)[C@H](O)[C@H](C)O2)Oc2ccc(cc2Cl)[C@H]1O [Vancomycin]
[2]; [4]
  Window: 10 to 20 µg/mL

## C=CC(N)CCC(=O)O (stereo not drawn) [Vigabratin]
[2]; [4]
  Window: 0.8 to 36 µg/mL

## NS(=O)(=O)Cc1noc2ccccc12 [Zonisamide]
[2]; [4]
  Window: 10 to 40 µg/mL

## Cc1nc(Nc2ncc(C(=O)Nc3c(C)cccc3Cl)s2)cc(N2CCN(CCO)CC2)n1 [dasatinib]
[2]; [4]
  Window: ~0.05 µg/mL

## C#Cc1cccc(Nc2ncnc3cc(OCCOC)c(OCCOC)cc23)c1 [erlotinib]
[2]; [5]
  Window: 100 to 150 mg/day

## CNC(=O)c1cc(Oc2ccc(NC(=O)Nc3ccc(Cl)c(C(F)(F)F)c3)cc2)ccn1 [sorafenib]
[2]; [5]
  Window: 800 mg/day

## Adalimumab
[2]; in vivo
  Window: 3.5 to 7 µg/mL

## Certolizumab pegol: antibody for autoimmune diseases
[2]; in vivo
  Window: 3 to 84 µg/mL

## Infliximab: antibody for autoimmune diseases
[2]; in vivo
  Window: ~3.8 µg/mL

## Teicoplanin
[2]; [4]
  Window: 10 to 60 µg/mL

## retuximab: cancer drug listed in Table D; not natively fluorescent, requires label
[2]; in vivo
  Window: Maintain at 375 mg/m^2
